Among the data in ChEMBL document CHEMBL4196108, “5-Aroylindoles Act as Selective Histone Deacetylase 6 Inhibitors Ameliorating Alzheimer's Disease Phenotypes” (J Med Chem, 2018) are IC50 and Ratio IC50 values, retold here.

Assay [1] addresses T1, Polyamine deacetylase HDAC10 (Homo sapiens, UniProt Q969S8).
T1 sequence (Q969S8 whole entry): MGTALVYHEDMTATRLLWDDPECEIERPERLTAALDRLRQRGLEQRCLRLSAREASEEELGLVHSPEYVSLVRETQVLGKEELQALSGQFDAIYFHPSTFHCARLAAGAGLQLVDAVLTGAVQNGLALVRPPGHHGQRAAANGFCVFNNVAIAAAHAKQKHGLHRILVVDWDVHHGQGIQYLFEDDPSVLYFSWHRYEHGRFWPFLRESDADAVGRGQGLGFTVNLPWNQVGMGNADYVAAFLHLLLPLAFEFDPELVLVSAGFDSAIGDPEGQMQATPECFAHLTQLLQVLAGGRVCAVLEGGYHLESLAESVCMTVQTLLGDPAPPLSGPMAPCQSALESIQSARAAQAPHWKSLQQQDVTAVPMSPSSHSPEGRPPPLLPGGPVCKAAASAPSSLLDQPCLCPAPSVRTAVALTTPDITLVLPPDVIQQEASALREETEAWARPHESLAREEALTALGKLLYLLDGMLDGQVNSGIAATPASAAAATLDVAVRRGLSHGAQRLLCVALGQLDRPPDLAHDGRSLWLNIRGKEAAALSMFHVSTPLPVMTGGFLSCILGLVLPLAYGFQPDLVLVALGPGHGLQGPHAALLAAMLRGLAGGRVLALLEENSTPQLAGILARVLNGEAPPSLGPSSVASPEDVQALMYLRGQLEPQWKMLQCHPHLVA
Kind of assay: Inhibition of human HDAC10 using RHKKAc peptide as substrate.

In a further assay the target is Histone deacetylase 1 (Homo sapiens, UniProt Q13547). Kind of assay: Inhibition of human HDAC1 using RHKKAc peptide as substrate.
Histone deacetylase 1, sequence (Q13547 whole entry): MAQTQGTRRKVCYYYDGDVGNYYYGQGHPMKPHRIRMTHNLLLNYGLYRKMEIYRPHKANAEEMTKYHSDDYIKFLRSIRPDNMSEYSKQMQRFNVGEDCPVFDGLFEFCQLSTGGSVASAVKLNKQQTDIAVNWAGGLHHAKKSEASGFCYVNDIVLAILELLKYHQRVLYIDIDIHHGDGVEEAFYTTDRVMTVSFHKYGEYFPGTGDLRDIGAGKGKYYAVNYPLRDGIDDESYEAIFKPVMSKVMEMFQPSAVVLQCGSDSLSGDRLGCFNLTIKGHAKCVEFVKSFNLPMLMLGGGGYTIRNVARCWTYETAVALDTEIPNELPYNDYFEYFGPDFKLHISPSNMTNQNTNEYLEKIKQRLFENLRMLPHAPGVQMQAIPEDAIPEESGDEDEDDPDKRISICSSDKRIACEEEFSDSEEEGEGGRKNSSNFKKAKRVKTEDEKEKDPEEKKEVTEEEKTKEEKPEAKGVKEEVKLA
In a further assay the target is Histone deacetylase 2 (Homo sapiens, UniProt Q92769). Kind of assay: Inhibition of human HDAC2 using RHKKAc peptide as substrate.
Histone deacetylase 2, sequence (Q92769 whole entry): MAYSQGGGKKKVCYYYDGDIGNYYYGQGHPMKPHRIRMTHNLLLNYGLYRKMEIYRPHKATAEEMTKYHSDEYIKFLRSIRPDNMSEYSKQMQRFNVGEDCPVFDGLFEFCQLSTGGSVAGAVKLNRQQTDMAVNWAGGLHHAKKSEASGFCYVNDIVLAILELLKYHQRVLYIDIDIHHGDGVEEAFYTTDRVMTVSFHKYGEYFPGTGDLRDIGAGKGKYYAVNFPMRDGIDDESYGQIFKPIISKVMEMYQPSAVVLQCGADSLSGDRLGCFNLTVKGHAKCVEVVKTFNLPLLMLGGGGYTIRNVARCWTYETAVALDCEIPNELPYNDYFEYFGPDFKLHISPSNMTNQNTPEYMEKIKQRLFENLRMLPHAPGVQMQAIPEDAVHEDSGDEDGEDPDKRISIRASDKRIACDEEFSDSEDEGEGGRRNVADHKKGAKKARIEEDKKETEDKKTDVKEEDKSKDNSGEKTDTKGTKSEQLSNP
A further assay addresses Histone deacetylase 3 (Homo sapiens, UniProt O15379).
The target in the next assay is T2, Histone deacetylase 8 (Homo sapiens, UniProt Q9BY41).
T2 sequence (Q9BY41 whole entry): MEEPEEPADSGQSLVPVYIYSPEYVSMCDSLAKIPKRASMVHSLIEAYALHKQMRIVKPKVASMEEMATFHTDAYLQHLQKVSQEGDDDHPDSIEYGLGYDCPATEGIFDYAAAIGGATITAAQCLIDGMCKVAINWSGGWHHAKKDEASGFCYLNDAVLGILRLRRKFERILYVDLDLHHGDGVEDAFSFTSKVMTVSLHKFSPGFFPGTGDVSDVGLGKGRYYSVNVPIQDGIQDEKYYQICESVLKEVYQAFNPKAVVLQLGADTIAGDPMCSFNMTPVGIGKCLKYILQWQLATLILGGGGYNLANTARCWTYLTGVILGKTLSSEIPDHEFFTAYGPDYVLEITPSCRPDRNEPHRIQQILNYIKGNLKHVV
Kind of assay: Inhibition of human HDAC8 using RHKAcKAc peptide as substrate.

For assay [2], the target named is T3, Protein deacetylase HDAC6 (Homo sapiens, UniProt Q9UBN7).
T3 sequence (Q9UBN7 whole entry): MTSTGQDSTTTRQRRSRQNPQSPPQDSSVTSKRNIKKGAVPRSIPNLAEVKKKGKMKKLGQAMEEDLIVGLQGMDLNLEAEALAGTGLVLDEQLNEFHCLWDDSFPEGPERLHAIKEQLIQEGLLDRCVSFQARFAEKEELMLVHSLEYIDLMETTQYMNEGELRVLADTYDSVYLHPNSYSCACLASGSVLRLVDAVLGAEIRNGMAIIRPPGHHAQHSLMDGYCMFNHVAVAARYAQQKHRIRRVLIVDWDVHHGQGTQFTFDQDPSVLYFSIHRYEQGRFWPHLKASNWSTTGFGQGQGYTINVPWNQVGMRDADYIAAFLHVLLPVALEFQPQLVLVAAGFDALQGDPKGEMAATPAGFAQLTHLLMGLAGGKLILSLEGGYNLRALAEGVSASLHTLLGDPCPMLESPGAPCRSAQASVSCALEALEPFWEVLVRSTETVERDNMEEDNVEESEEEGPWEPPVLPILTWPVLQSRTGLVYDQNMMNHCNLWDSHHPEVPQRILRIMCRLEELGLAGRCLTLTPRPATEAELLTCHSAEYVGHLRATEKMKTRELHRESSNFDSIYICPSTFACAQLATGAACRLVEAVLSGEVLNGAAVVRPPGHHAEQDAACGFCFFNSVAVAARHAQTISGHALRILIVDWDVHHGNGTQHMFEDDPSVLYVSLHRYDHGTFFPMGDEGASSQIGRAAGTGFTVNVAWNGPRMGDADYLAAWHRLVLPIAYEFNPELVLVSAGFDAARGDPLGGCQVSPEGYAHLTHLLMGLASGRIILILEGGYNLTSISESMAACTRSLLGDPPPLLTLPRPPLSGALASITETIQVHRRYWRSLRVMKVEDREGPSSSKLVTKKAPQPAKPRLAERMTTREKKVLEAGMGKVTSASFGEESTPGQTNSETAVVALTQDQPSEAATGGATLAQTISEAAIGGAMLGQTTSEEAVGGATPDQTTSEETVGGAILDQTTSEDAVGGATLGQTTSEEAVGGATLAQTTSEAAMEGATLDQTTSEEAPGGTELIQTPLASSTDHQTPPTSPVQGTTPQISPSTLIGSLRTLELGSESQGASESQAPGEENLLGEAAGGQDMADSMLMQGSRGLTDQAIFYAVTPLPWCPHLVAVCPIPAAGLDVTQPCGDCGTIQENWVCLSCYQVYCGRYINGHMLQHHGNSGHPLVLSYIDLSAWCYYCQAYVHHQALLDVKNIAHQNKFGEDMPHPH
Kind of assay: Inhibition of human HDAC6 using RHKKAc peptide as substrate.

For assay [3], the species on record is Homo sapiens. Kind of assay: Selectivity index, ratio of IC50 for human HDAC1 to IC50 for human HDAC6.
For assay [4], the species on record is Homo sapiens. Kind of assay: Selectivity index, ratio of IC50 for human HDAC2 to IC50 for human HDAC6.
The species named for assay [5] is Homo sapiens. Kind of assay: Selectivity index, ratio of IC50 for human HDAC3 to IC50 for human HDAC6.
For assay [6], the species on record is Homo sapiens. Kind of assay: Selectivity index, ratio of IC50 for human HDAC8 to IC50 for human HDAC6.
The species entered for assay [7] is Homo sapiens. Kind of assay: Selectivity index, ratio of IC50 for human HDAC10 to IC50 for human HDAC6.

Histone deacetylase 3, sequence (O15379 whole entry): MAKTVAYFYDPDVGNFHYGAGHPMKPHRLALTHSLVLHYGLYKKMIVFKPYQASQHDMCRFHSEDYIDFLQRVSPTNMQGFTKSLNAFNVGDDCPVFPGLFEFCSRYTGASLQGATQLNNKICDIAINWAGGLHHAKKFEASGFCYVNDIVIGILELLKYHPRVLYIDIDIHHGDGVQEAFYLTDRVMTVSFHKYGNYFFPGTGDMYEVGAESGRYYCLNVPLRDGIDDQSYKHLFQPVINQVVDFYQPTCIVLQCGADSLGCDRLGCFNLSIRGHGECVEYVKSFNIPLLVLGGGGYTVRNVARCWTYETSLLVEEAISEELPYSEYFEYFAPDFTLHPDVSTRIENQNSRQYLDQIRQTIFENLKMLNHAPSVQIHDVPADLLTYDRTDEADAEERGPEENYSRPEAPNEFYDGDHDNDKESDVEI

Regarding `COc1cc(C(=O)c2ccc3c(ccn3S(=O)(=O)c3ccc(/C=C/C(=O)NO)cc3)c2)cc(OC)c1OC`, the IC50 in [1] was greater than 100000 nM; at Histone deacetylase 1, 8540 nM; on Histone deacetylase 2, 11600 nM; against Histone deacetylase 3 it was 996 nM; on Histone deacetylase 8 it was 5340 nM; in [2], 972 nM. Besides, the Ratio IC50 in the assay filed under Homo sapiens [3] is 8.8; in the assay listed under Homo sapiens [4], 11.9; in the assay listed under Homo sapiens [5], 1.02; in the assay listed under Homo sapiens [6] it was 5.5; in the assay listed under Homo sapiens [7] it was greater than 103.
With `COc1ccc(C(=O)c2ccc3c(ccn3Cc3ccc(C(=O)NO)cc3)c2)cc1OC`, the concentration for half-maximal inhibition (IC50) in [1] stood at 18900 nM; against Histone deacetylase 1, 2800 nM; at Histone deacetylase 2, 3030 nM; against Histone deacetylase 3, 6050 nM; against Histone deacetylase 8, 756 nM; in assay [2], 15.5 nM. In addition, the Ratio IC50 in the assay filed under Homo sapiens [3] is 181; in the assay filed under Homo sapiens [4], 196; in the assay filed under Homo sapiens [5], 390; in the assay listed under Homo sapiens [6] it was 48.8; in the assay listed under Homo sapiens [7], 1220.
Turning to `O=C(/C=C/c1cccc(S(=O)(=O)n2ccc3cc(C(=O)c4ccc(F)cc4)ccc32)c1)NO`, the IC50 in assay [1] is 5240 nM; against Histone deacetylase 1 it was 230 nM; against Histone deacetylase 2, 1800 nM; against Histone deacetylase 3, 59.6 nM; at Histone deacetylase 8 it was 2750 nM; in [2], 1420 nM. Further, the Ratio IC50 amounted to 0.16 in the assay listed under Homo sapiens [3]; 1.3 in the assay listed under Homo sapiens [4]; 0.04 in the assay filed under Homo sapiens [5]; 1.9 in the assay filed under Homo sapiens [6]; 3.7 in the assay filed under Homo sapiens [7].
`COc1cc(C(=O)c2ccc3c(ccn3S(=O)(=O)c3cccc(/C=C/C(=O)NO)c3)c2)cc(OC)c1OC`: the concentration for half-maximal inhibition (IC50) in assay [1] is greater than 100000 nM; at Histone deacetylase 1, 1320 nM; against Histone deacetylase 2 it was 1770 nM; against Histone deacetylase 3 it was greater than 100000 nM; at Histone deacetylase 8, 1260 nM; in [2] it was 562 nM. The Ratio IC50 is 2.3 in the assay listed under Homo sapiens [3]; 3.1 in the assay listed under Homo sapiens [4]; greater than 178 in the assay filed under Homo sapiens [5]; 2.2 in the assay listed under Homo sapiens [6]; greater than 178 in the assay listed under Homo sapiens [7].
In the case of `COc1cc(C(=O)c2ccc3c(ccn3Cc3ccc(/C=C/C(=O)NO)cc3)c2)cc(OC)c1OC`, the 50% inhibitory concentration (IC50) against Histone deacetylase 1 was determined as 3480 nM; against Histone deacetylase 2, 5740 nM; at Histone deacetylase 8 it was 2170 nM; in assay [2], 143 nM. Also, the Ratio IC50 was found to be 24.3 in the assay filed under Homo sapiens [3], 40.1 in the assay listed under Homo sapiens [4] and 15.2 in the assay filed under Homo sapiens [6].
As for `COc1ccc(C(=O)c2ccc3c(ccn3Cc3ccc(/C=C/C(=O)NO)cc3)c2)cc1`, the IC50 turned out to be 7050 nM in [1]; 1440 nM against Histone deacetylase 1; 1950 nM against Histone deacetylase 2; 2050 nM on Histone deacetylase 3; 2810 nM against Histone deacetylase 8; 108 nM in assay [2]. The Ratio IC50 in the assay filed under Homo sapiens [3] is 13.3; in the assay listed under Homo sapiens [4], 18.1; in the assay filed under Homo sapiens [5], 19; in the assay filed under Homo sapiens [6], 26; in the assay listed under Homo sapiens [7], 65.3.
On to `COc1ccc(C(=O)c2ccc3c(ccn3S(=O)(=O)c3cccc(/C=C/C(=O)NO)c3)c2)cc1OC`, for which the IC50 was determined as 8240 nM in assay [1]; 877 nM at Histone deacetylase 1; 2140 nM at Histone deacetylase 2; 861 nM against Histone deacetylase 3; 1420 nM against Histone deacetylase 8; 1180 nM in [2]. Moreover, the Ratio IC50 was 0.7 in the assay filed under Homo sapiens [3]; 1.8 in the assay listed under Homo sapiens [4]; 0.7 in the assay filed under Homo sapiens [5]; 1.2 in the assay listed under Homo sapiens [6]; 6.9 in the assay listed under Homo sapiens [7].
In assay [2], `COc1cc(C(=O)c2ccc3c(ccn3Cc3ccc(C(=O)NO)cc3)c2)cc(OC)c1OC` came in with an IC50 of 1540 nM.
Regarding `Cc1ccc(C(=O)c2ccc3c(ccn3S(=O)(=O)c3cccc(/C=C/C(=O)NO)c3)c2)cc1`, the IC50 in assay [1] was 9100 nM; at Histone deacetylase 1 it was 1420 nM; at Histone deacetylase 2 it was 7270 nM; at Histone deacetylase 3, 891 nM; against Histone deacetylase 8, 4480 nM; in [2] it was 2750 nM. For the same molecule, the Ratio IC50 came out at 0.5 in the assay listed under Homo sapiens [3]; 2.6 in the assay filed under Homo sapiens [4]; 0.3 in the assay listed under Homo sapiens [5]; 1.6 in the assay listed under Homo sapiens [6]; 3.3 in the assay listed under Homo sapiens [7].
For the molecule `COc1ccc(C(=O)c2ccc3c(ccn3S(=O)(=O)c3ccc(/C=C/C(=O)NO)cc3)c2)cc1`, the IC50 in assay [1] was greater than 100000 nM; against Histone deacetylase 1, 7160 nM; against Histone deacetylase 2 it was greater than 100000 nM; against Histone deacetylase 3, 2560 nM; at Histone deacetylase 8, 10000 nM; in [2], 848 nM. Also, the Ratio IC50 is 8.4 in the assay filed under Homo sapiens [3]; greater than 118 in the assay listed under Homo sapiens [4]; 3.01 in the assay listed under Homo sapiens [5]; 11.8 in the assay listed under Homo sapiens [6]; greater than 118 in the assay filed under Homo sapiens [7].
On to `Cc1ccc(C(=O)c2ccc3c(ccn3Cc3ccc(C(=O)NO)cc3)c2)cc1`, for which the IC50 in assay [1] is greater than 100000 nM; against Histone deacetylase 1, 3120 nM; on Histone deacetylase 2, 7250 nM; against Histone deacetylase 3 it was 3910 nM; against Histone deacetylase 8, 1490 nM; in [2], 11.9 nM. Besides, the Ratio IC50 in the assay listed under Homo sapiens [3] was 262; in the assay listed under Homo sapiens [4] it was 609; in the assay listed under Homo sapiens [5], 329; in the assay filed under Homo sapiens [6], 125; in the assay listed under Homo sapiens [7], greater than 8400.
For the molecule `COc1cccc(C(=O)c2ccc3c(ccn3S(=O)(=O)c3cccc(/C=C/C(=O)NO)c3)c2)c1`, the half-maximal inhibitory concentration (IC50) in assay [1] was found to be 7740 nM; on Histone deacetylase 1, 1210 nM; at Histone deacetylase 2, 4800 nM; against Histone deacetylase 3, 323 nM; at Histone deacetylase 8, 3530 nM; in assay [2] it was 1810 nM. In addition, the Ratio IC50 in the assay filed under Homo sapiens [3] turned out to be 0.7; in the assay filed under Homo sapiens [4], 2.7; in the assay filed under Homo sapiens [5] it was 0.2; in the assay filed under Homo sapiens [6] it was 1.9; in the assay filed under Homo sapiens [7] it was 4.3.

In general, IC50 refers to the concentration that inhibits the measured activity by half. A higher IC50 goes with weaker potency.
